Among the data in patent US20020041880A1, “Method of treating cancer” (priority 2000, published 2002) are melting point values, retold here.

For `c1cc(-c2cnn3cc(-c4ccc(OCCN5CCOCC5)cc4)cnc23)cs1` [Example 3, 3-(3-thienyl)-6-(4-(2-(4-morpholinyl)ethoxy)phenyl)pyrazolo(1,5-A)pyrimidine], the melting point (usually the temperature of the solid-liquid transition) is 149 to 151 °C.

Turning to `c1cc(-c2cnn3cc(-c4ccc(OCCN5CCCCC5)cc4)cnc23)cs1` [Example 4, 6-[4-(2-piperidin-1-yl-ethoxy)-phenyl]-3-thiophen-3-yl-pyrazolo[1,5-a]pyrimidine], the melting point fell in the range of 141 to 143 °C.
